According to patent US11952554B2, “Alkyl polyglycoside-containing cleaning formulations for chemically sensitive individuals” (Living Clean NZ, Ltd., priority 2021, dated 2024):
Values belong to the compound of their own block, whether it stands above or below them.

Legend:
[1] = test system: chemically sensitive individuals (MCS); parameters: species or system human; conditions: in vivo
Procedure: Once candidate ingredients are identified and tested as described above, they are evaluated for use in potential cleaning formulations using a blind study protocol. The blind studies used in the course of the instant work were comprised of a specially selected panel of volunteers. […] A panel comprised of just such individuals was used for many aspects of the studies conducted herein. […] See E. A. Krusemark and W. Li, “Enhanced olfactory sensory perception of threat in anxiety: An event-related fMRI study,” Chemosensory Perception, 5 (2012) 37-45; the article in its entirely is herein incorporated by reference.
In the course of the instant work, at least one individual with MCS was used to rank prospective ingredients for acceptability in cleaning formulations based upon sensory responses, which included olfactory as well as skin contact. Instrumental analyses were then implemented to correlate results with sensory ratings from the human panel, and to identify and/or quantify the chemicals detected and deemed to be potentially harmful to humans. Ingredients that were deemed acceptable by the human panel and the instrumental analyses were then used as raw materials for cleaning products described herein. It is believed that this level of pre-screening and testing represents a first in the world for consumer cleaning product formulations work, and has provided an unprecedented level of safety testing for consumer products. Accordingly, in one aspect of the technology newly presented and described herein, a method for providing cleaning formulations for use by the general public and chemically-sensitized individuals, in particular, involves:
Without being bound by theory, it is believed that this phenomenon is due to the non-exact nature of the BCI or RCI measurement (±3% by weight) vis-à-vis the low amounts of contaminants, perhaps much less than 1% by weight, that are present in certain ingredients. To test this hypothesis, a number of chemically sensitive individuals assessed four types of alkyl polyglucosides, or APGs, from three manufacturers, all of which have an apparent BCI/RCI of 100%. Each of the APG candidates was rated on a 3-point index: Acceptable, Marginal, and Unacceptable. The Marginal and Unacceptable candidates were then analyzed for the presence of trace contaminants.
In the manufacture of surfactants, it can be assumed that a small amount, albeit a significant one, of feedstock remains unreacted. This amount can often be less than 1% by weight, but to individuals who are sensitive to such species, the impact can be significant. […] As such, a number of raw materials were evaluated by a number of chemically sensitive individuals for acceptability using the same scale as above.

[2] = cited from earlier work

Compound: ClC(Cl)Cl [Trichloromethane (chloroform), Trichloromethane]
CAA-HAP listing ([2]; Clean Air Act-Hazardous Air Pollutant): ✓
CAA-TFS listing ([2]; Clean Air Act-Toxic and Flammable Substances for Accidental Release Prevention): ✓
CWA listing ([2]; Clean Water Act-Priority Pollutant): ✓
CERCLA listing ([2]; Comprehensive Environmental Response, Compensation, and Liability Act-Hazardous Substance): ✓
EPCRA listing ([2]; Emergency Planning & Community Right to Know Act-Toxic Release Inventory Chemical): ✓
OSHA listing ([2]; Occupational Safety and Health Act-Air Contaminants): ✓
RCRA listing ([2]; Resource Conservation and Recovery Act-Hazardous Constituents): ✓

Compound: C10-16 alkyl polyglucoside
Acceptability Rating [1]: Acceptable-

Results, then the compound that gave them:

Acceptability Rating [1]: Unacceptable
Compound: CCCCCCCCOS(=O)(=O)[O-].[Na+] [Sodium octyl sulfate (from bio-basis), Sodium octyl sulfate]

Acceptability Rating [1]: Unacceptable
Compound: C8-10 alkyl polyglucoside

Acceptability Rating [1]: Acceptable
Compound: Sodium coco sulfate
